Source: ChEMBL document CHEMBL5316381, “Discovery of [1,2,3]Triazolo[4,5-c]quinoline Derivatives as a New Class of Ataxia-Telangiectasia Mutated Kinase Inhibitors” (ACS Med Chem Lett, 2023)
Calls of active or inactive are those of the source. No cut-off for these calls is given here.

What was measured:
[1] = molecular target: T1, Serine-protein kinase ATM (Homo sapiens, UniProt Q13315); test: Inhibition of ATM (unknown origin) using GST-cMyc-p53 as substrate incubated for 30 mins in presence of Mg/ATP mix by HTRF-based analysis
T1 sequence (Q13315 whole entry): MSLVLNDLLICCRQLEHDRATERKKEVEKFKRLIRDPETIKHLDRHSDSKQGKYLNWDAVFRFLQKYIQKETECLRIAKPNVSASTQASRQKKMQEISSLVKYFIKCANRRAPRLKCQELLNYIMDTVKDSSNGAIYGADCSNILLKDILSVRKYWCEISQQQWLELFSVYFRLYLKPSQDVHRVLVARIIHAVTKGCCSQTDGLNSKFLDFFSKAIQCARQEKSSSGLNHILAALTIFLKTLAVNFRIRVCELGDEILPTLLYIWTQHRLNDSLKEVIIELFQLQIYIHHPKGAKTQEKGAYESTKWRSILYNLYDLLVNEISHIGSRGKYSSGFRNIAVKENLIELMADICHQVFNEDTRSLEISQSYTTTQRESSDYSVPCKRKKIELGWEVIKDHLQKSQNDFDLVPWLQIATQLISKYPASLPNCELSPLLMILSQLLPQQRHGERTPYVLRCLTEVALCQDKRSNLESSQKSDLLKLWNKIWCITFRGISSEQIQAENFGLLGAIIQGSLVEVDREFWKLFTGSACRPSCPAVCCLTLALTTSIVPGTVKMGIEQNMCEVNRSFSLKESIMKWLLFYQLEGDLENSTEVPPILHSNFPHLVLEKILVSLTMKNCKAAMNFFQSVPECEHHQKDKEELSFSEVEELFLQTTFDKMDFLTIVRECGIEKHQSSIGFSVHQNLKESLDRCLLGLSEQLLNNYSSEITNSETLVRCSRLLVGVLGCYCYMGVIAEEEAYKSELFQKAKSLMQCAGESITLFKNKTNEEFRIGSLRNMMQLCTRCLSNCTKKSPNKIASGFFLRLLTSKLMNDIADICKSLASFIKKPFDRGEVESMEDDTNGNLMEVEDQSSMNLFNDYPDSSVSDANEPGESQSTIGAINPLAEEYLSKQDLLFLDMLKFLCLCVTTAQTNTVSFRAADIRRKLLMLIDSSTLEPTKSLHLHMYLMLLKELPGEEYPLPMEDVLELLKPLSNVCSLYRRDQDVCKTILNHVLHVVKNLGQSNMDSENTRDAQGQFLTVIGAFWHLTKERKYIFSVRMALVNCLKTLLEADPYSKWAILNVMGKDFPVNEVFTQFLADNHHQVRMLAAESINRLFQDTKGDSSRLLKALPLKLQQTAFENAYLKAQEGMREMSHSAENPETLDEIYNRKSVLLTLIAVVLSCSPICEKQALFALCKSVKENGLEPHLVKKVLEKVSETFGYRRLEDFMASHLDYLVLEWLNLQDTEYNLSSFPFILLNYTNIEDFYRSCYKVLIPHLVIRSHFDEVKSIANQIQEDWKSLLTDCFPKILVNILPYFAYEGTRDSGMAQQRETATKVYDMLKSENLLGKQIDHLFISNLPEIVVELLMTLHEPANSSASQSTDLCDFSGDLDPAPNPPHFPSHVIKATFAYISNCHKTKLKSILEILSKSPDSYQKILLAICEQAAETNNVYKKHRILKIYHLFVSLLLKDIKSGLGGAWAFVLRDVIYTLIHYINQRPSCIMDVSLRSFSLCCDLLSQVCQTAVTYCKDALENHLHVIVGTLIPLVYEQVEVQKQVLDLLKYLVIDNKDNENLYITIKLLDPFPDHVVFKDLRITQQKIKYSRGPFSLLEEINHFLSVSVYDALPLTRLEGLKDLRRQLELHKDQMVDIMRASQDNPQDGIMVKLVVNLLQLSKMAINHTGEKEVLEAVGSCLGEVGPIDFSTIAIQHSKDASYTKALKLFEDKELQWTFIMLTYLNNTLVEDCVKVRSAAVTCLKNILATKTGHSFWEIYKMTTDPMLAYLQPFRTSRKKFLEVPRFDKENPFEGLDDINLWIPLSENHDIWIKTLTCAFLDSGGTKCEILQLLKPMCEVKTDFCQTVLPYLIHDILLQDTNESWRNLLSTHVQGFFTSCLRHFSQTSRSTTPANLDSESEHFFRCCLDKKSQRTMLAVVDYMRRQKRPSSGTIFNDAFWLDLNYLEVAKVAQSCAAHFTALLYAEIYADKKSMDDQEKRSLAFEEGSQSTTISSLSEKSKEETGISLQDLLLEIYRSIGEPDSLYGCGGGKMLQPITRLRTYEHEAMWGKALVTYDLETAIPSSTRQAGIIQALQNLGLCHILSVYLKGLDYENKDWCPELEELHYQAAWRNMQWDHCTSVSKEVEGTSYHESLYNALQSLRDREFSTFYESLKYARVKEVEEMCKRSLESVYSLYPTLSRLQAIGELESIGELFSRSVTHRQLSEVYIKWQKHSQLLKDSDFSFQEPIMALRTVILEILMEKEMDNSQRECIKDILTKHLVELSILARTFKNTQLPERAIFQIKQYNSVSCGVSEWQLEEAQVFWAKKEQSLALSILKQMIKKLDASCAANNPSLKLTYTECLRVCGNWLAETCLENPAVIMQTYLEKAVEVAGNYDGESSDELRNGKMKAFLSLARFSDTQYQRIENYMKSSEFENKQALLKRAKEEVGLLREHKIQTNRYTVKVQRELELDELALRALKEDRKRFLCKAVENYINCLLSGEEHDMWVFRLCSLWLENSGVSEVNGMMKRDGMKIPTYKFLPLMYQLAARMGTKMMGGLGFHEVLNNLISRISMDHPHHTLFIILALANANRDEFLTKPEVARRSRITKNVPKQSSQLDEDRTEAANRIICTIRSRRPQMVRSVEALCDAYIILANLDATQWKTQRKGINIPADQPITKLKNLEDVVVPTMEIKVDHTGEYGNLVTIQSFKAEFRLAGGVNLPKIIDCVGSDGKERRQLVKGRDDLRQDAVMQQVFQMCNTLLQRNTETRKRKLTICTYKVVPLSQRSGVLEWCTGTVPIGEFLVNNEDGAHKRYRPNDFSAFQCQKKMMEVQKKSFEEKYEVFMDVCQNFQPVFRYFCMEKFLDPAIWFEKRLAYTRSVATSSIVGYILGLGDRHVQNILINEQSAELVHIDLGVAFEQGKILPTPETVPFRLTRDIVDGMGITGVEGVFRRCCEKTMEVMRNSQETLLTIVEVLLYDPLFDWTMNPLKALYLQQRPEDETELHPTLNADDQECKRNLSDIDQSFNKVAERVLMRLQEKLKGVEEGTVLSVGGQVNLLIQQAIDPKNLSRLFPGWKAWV

[2] = molecular target: PI3-kinase p110-alpha/p85-alpha (Homo sapiens, UniProt P42336); test: Inhibition of human PI3K p110 alpha/p85 alpha using phosphatidylinositol-4, 5-bisphosphate as substrate incubated for 30 mins in the presence of Mg/ATP mix by HTRF-based analysis; assay type: protein-complex assay
[3] = molecular target: Phosphatidylinositol 4,5-bisphosphate 3-kinase catalytic subunit gamma isoform (Homo sapiens, UniProt P48736); test: Inhibition of human PI3K p120 gamma using phosphatidylinositol-4, 5-bisphosphate as substrate incubated for 30 mins in the presence of Mg/ATP mix by HTRF-based analysis
Phosphatidylinositol 4,5-bisphosphate 3-kinase catalytic subunit gamma isoform, sequence (P48736 whole entry, canonical isoform): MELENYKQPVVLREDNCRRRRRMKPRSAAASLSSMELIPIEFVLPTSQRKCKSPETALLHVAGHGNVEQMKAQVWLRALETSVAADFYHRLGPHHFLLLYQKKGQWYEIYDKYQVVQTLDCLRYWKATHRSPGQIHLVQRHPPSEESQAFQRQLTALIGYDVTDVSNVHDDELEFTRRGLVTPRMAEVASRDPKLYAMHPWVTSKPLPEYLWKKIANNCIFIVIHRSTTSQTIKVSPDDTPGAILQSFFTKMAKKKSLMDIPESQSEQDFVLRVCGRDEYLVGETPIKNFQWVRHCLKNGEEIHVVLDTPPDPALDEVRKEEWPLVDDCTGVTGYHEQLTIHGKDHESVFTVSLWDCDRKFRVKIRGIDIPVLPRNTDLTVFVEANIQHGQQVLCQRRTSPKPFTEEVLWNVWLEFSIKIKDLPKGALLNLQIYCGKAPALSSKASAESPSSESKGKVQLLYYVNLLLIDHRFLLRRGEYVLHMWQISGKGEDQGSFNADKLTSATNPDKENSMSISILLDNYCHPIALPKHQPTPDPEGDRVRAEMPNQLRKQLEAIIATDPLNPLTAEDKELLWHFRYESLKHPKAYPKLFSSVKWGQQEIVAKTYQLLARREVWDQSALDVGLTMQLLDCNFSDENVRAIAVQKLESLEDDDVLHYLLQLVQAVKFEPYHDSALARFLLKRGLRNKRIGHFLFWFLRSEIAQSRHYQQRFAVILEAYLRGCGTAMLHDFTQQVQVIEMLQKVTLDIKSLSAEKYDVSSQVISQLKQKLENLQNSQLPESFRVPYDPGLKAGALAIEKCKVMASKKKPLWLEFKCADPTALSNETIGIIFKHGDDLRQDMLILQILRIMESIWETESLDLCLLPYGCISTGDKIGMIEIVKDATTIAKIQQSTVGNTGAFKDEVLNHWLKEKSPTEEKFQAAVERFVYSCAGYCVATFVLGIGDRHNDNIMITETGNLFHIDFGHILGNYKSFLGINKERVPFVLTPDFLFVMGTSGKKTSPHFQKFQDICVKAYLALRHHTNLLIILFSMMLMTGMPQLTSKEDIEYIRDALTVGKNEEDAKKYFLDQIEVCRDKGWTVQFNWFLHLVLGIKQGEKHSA

[4] = molecular target: PI3-kinase p110-delta/p85-alpha (Homo sapiens, UniProt O00329); test: Inhibition of human PI3K p110 delta/p85 alpha using phosphatidylinositol-4, 5-bisphosphate as substrate incubated for 30 mins in the presence of Mg/ATP mix by HTRF-based analysis; assay type: protein-complex assay
SW-620 [5] = test: Cell cycle arrest in human SW620 cells assessed as accumulation of cells at G2/M phase upto 100 nM incubated for 24 hrs by PI staining based flow cytometric analysis; assay type: functional
SW-620 [6] = test: Cell cycle arrest in human SW620 cells assessed as accumulation of cells at G2/M phase incubated for 24 hrs in presence of CPT-11 by PI staining based flow cytometric analysis; assay type: functional; details: dose 10-100 nM
SW-620 [7] = test: Induction of apoptosis in human SW620 cells assessed as late apoptotic cells at 100 nM measured after 72 hrs in presence of CPT-11 by Annexin V-FITC staining based flow cytometric analysis (reference value: 5.75%); assay type: functional
SW-620 [8] = test: Induction of apoptosis in human SW620 cells assessed as late apoptotic cells at 30 nM measured after 72 hrs in presence of CPT-11 by Annexin V-FITC staining based flow cytometric analysis (reference value: 5.75%); assay type: functional
SW-620 [9] = test: Induction of apoptosis in human SW620 cells assessed as viable cells at 10 nM measured after 72 hrs in presence of CPT-11 by Annexin V-FITC staining based flow cytometric analysis (reference value: 87.36%); assay type: functional; details: read-out: Activity
SW-620 [10] = test: Induction of apoptosis in human SW620 cells assessed as early apoptotic cells at 10 nM measured after 72 hrs in presence of CPT-11 by Annexin V-FITC staining based flow cytometric analysis (reference value: 1.06%); assay type: functional
SW-620 [11] = test: Induction of apoptosis in human SW620 cells assessed as late apoptotic cells at 10 nM measured after 72 hrs in presence of CPT-11 by Annexin V-FITC staining based flow cytometric analysis (reference value: 5.75%); assay type: functional
SW-620 [12] = test: Induction of apoptosis in human SW620 cells assessed as necrotic cells at 10 nM measured after 72 hrs in presence of CPT-11 by Annexin V-FITC staining based flow cytometric analysis (reference value: 5.83%); assay type: functional
HCT-116 [13] = test: Induction of apoptosis in human HCT-116 cells assessed as viable cells at 1 uM measured after 72 hrs by Annexin V-FITC staining based flow cytometric analysis (reference value: 73.74%); assay type: functional; details: read-out: Activity
HCT-116 [14] = test: Induction of apoptosis in human HCT-116 cells assessed as necrotic cells at 1 uM measured after 72 hrs by Annexin V-FITC staining based flow cytometric analysis (reference value: 2.41%); assay type: functional
HCT-116 [15] = test: Induction of apoptosis in human HCT-116 cells assessed as late apoptotic cells at 100 nM measured after 72 hrs in presence of CPT-11 by Annexin V-FITC staining based flow cytometric analysis (reference value: 19.80%); assay type: functional
HCT-116 [16] = test: Induction of apoptosis in human HCT-116 cells assessed as viable cells at 30 nM measured after 72 hrs in presence of CPT-11 by Annexin V-FITC staining based flow cytometric analysis (reference value: 73.74%); assay type: functional; details: read-out: Activity
HCT-116 [17] = test: Induction of apoptosis in human HCT-116 cells assessed as early apoptotic cells at 30 nM measured after 72 hrs in presence of CPT-11 by Annexin V-FITC staining based flow cytometric analysis (reference value: 4.06%); assay type: functional
HCT-116 [18] = test: Induction of apoptosis in human HCT-116 cells assessed as necrotic cells at 30 nM measured after 72 hrs in presence of CPT-11 by Annexin V-FITC staining based flow cytometric analysis (reference value: 2.41%); assay type: functional
HCT-116 [19] = test: Induction of apoptosis in human HCT-116 cells assessed as late apoptotic cells at 10 nM measured after 72 hrs in presence of CPT-11 by Annexin V-FITC staining based flow cytometric analysis (reference value: 19.80%); assay type: functional
HCT-116 [20] = test: Induction of apoptosis in human HCT-116 cells assessed as necrotic cells at 10 nM measured after 72 hrs in presence of CPT-11 by Annexin V-FITC staining based flow cytometric analysis (reference value: 2.41%); assay type: functional
HCT-116 [21] = test: Induction of apoptosis in human HCT-116 cells assessed as early apoptotic cells at 100 nM measured after 72 hrs by Annexin V-FITC staining based flow cytometric analysis (reference value: 4.06%); assay type: functional
HCT-116 [22] = test: Induction of apoptosis in human HCT-116 cells assessed as necrotic cells at 100 nM measured after 72 hrs by Annexin V-FITC staining based flow cytometric analysis (reference value: 2.41%); assay type: functional
[23] = molecular target: Serine/threonine-protein kinase Chk2 (Homo sapiens) (UniProt O96017); test: Inhibition of CPT-11 induced Chk2 phosphorylation in human SW620 cells by SDS-PAGE based Westernblot analysis; assay type: cell-based
Serine/threonine-protein kinase Chk2 (Homo sapiens), sequence (O96017 whole entry): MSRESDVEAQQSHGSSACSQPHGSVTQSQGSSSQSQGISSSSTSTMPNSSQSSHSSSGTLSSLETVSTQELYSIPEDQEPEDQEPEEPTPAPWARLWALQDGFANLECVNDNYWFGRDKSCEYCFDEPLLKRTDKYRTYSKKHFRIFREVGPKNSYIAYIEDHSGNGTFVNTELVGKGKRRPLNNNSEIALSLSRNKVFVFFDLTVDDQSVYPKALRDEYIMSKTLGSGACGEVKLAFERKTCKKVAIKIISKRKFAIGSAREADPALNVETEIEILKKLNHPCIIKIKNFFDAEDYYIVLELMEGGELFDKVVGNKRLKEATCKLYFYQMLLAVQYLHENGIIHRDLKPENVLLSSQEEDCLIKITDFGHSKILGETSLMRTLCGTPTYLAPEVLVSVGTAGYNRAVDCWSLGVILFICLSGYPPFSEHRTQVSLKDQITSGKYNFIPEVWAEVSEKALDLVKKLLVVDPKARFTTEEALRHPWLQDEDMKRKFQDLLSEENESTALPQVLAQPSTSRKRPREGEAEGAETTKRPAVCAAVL

[24] = molecular target: T1, Serine-protein kinase ATM; test: Inhibition of ATM in human SW620 cells assessed as increase in gamma H2AX foci at 250 nM incubated for 24 hrs by confocal microscopic analysis; assay type: cell-based
[25] = molecular target: T1, Serine-protein kinase ATM; test: Inhibition of ATM phosphorylation in human SW620 cells with IR-induced DNA damage in the presence of 3 Gy irradiation by Western blot analysis; assay type: cell-based; details: dose 3-250 nM
[26] = molecular target: Serine/threonine-protein kinase Chk2 (Homo sapiens) (UniProt O96017); test: Inhibition of Chk2 phosphorylation in human SW620 cells with IR-induced DNA damage in the presence of 1.5 Gy irradiation by Western blot analysis; assay type: cell-based; details: dose 3-250 nM
[27] = Toxicity in BALB/c mouse xenografted with human SW620 cells assessed as liver damage at 5 mg/kg, ip administered once daily and measured after 23 days by H&E staining based microscopic analysis; assay type: organism-based, SW-620; details: in vivo, 552 h, time 23 day
[28] = Toxicity in BALB/c mouse xenografted with human SW620 cells assessed as spleen damage at 5 mg/kg, ip administered once daily and measured after 23 days by H&E staining based microscopic analysis; assay type: organism-based, SW-620; details: in vivo, 552 h, time 23 day
SW-620 [29] = test: In vivo inhibition of ATM in BALB/c mouse model xenografted with human SW620 cells assessed as inhibition of ATM phosphorylation at 5 mg/kg, ip administered once daily and measured after 23 days in the presence of CPT-11 by Western blot analysis; assay type: functional, organism-based; details: time 23.0 day
HCT-116 [30] = test: Anticancer activity against human HCT-116 cells assessed as reduction in cell viability by measuring fold change in CPT-11 IC50 at 100 nM incubated for 5 days by MTT assay relative irinotecan alone; assay type: functional; details: time 5 day

IC50 [1]: 0.001 µM | IC50 [2]: > 10 µM | IC50 [3]: > 10 µM | IC50 [4]: 1.03 µM | inhibition [23]: Dose-Dependent Effect | inhibition [24]: Active
Structure (SMILES): C[C@H](c1ccccc1)n1nnc2cnc3ccc(-c4ccc(OCCCN(C)C)nc4)cc3c21
Activity (SW-620 [5]): inactive | Activity (SW-620 [6]): Dose-Dependent Effect | Activity (SW-620 [7]): 60.69% | Activity (SW-620 [8]): 44% | viability at 0.01 µM (SW-620 [9]): 64.1% | Activity (SW-620 [10]): 2.76% | Activity (SW-620 [11]): 27.19% | Activity (SW-620 [12]): 5.94% | viability at 1 µM (HCT-116 [13]): 62.1% | Activity (HCT-116 [14]): 5.57% | Activity (HCT-116 [15]): 68.15% | viability at 0.03 µM (HCT-116 [16]): 25.7% | Activity (HCT-116 [17]): 2.23% | Activity (HCT-116 [18]): 8.39% | Activity (HCT-116 [19]): 34.21% | Activity (HCT-116 [20]): 8.88% | Activity (HCT-116 [21]): 1.21% | Activity (HCT-116 [22]): 9.24% | inhibition [25]: Dose-Dependent Effect | inhibition [26]: Dose-Dependent Effect | Activity [27]: Non-Toxic | Activity [28]: Non-Toxic | inhibition (SW-620 [29]): Active | fold change (FC) (HCT-116 [30]): 16
